Assay results as given in patent US20060264460A1 (Wyeth, priority 2005, published 2006).

These compounds were tested against T1, human Cot/Tpl2 kinase (Homo sapiens, UniProt P41279) (assay: Tpl2/Cot kinase assay: GST-MEK1 phosphorylation detected by ELISA (DELFIA Eu)). Details: Table 2; Tpl2/Cot kinase, GST-MEK1 substrate, 50 uM ATP.
T1 construct: human Cot/Tpl2 kinase construct encoding residues 30-398; 6His (N); made in house; host or cells: Sf9 insect cells, baculovirus system (BD Biosciences)
Format: biochemical
Method in brief: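 Substrate phosphorylation (GST-MEK1 Ser217/221) quantified by DELFIA europium ELISA, yielding IC50 values. Reaction: 1 h at 30° C, pH 7.2 MOPS buffer, 50 uM ATP, 35 nM GST-MEK1, 0.4 nM monomeric His-Tpl2 purified from Sf9 cells, compounds at 1% final DMSO; stopped with EDTA.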

T1 sequence (P41279 30-398): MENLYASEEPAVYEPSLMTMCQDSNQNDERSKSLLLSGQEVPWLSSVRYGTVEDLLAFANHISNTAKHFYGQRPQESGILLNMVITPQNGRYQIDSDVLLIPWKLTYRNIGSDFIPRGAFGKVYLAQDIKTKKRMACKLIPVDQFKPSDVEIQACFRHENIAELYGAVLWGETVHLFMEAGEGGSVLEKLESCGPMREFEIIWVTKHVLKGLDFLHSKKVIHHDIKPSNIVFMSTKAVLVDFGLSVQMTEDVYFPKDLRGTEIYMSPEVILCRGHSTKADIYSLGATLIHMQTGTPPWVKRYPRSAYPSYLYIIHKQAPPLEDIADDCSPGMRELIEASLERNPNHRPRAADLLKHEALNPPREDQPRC

Compound | IC50 [nM]
N#Cc1cnc2ccc(NCc3cnc[nH]3)cc2c1NC1CCCCCC1 [Example 400] | 490
CC(C)(C)Nc1c(C#N)cnc2ccc(NCc3cnc[nH]3)cc12 [Example 401] | 3100
N#Cc1cnc2ccc(N)cc2c1NC1CCCC1 [Example 402] | > 40000
CC(C)(C)Nc1c(C#N)cnc2ccc(NCc3cccc(C#N)c3)cc12 [Example 403] | 11500
CC(C)(C)Nc1c(C#N)cnc2ccc(NCc3ccn[nH]3)cc12 [Example 405] | > 40000
CC(C)(C)Nc1c(C#N)cnc2ccc(NCc3cccc[n+]3[O-])cc12 [Example 406] | 5400
Cn1ccnc1CNc1ccc2ncc(C#N)c(NC(C)(C)C)c2c1 [Example 407] | 5100
CC(C)(C)Nc1c(C#N)cnc2ccc(NCc3ccc(S(N)(=O)=O)cc3)cc12 [Example 408] | 21900
N#Cc1cnc2c(Cl)cc(N)cc2c1Nc1ccc(F)c(Cl)c1 [Example 409] | 920
N#Cc1cnc2ccc(NCc3cccc[n+]3[O-])cc2c1NC1CCCC1 [Example 410] | 1300
N#Cc1cnc2ccc(NCc3ccc(S(N)(=O)=O)cc3)cc2c1NC1CCCC1 [Example 411] | 7300
N#Cc1cnc2ccc(NCc3ccn[nH]3)cc2c1NC1CCCC1 [Example 413] | 1600
CS(=O)(=O)c1cccc(CNc2ccc3ncc(C#N)c(NC4CCCC4)c3c2)c1 [Example 414] | 2900
N#Cc1cnc2ccc(NCc3ccccc3)cc2c1NC1CCCC1 [Example 415] | 21300
N#Cc1ccccc1CNc1ccc2ncc(C#N)c(NC3CCCC3)c2c1 [Example 416] | 1700
N#Cc1cnc2ccc(NCc3cnc[nH]3)cc2c1NC1CCCC1 [Example 417] | 300
N#Cc1cnc2ccc(NCc3cccnc3)cc2c1NC1CCCC1 [Example 418] | 2600
N#Cc1cnc2ccc(NCCN3CCOCC3)cc2c1NC1CCCC1 [Example 419] | 19700
N#Cc1cccc(CNc2ccc3ncc(C#N)c(NC4CCCC4)c3c2)c1 [Example 420] | 2200
N#Cc1cnc2c(O)cc(N)cc2c1Nc1ccc(F)c(Cl)c1 [Example 421] | 10600
N#Cc1c(Nc2ccc(F)c(Cl)c2)c2cc(NCc3cccc[n+]3[O-])ccc2[nH]c1=O [Example 422] | > 40000
N#Cc1cnc2c(Br)cc(NCc3ccc(OC(F)(F)C(F)F)cc3)cc2c1Nc1ccc(F)c(Cl)c1 [Example 424] | > 40000
Cn1nc(C(C)(C)C)cc1Nc1c(C#N)cnc2ccc(N)cc12 [Example 425] | > 40000
N#Cc1cnc2c(Br)cc(NCc3ccc(C(O)(C(F)(F)F)C(F)(F)F)cc3)cc2c1Nc1ccc(F)c(Cl)c1 [Example 428] | > 40000
N#Cc1cnc2c(F)cc(NCc3cncn3O)cc2c1Nc1ccc(F)c(Cl)c1 [Example 437] | 200
N#Cc1cnc2c(Cl)cc(NCc3cncn3O)cc2c1Nc1ccc(F)c(Cl)c1 [Example 438] | 110

Compound | IC50 [nM]
Cc1[nH]c(C2CCCC2)nc1CNc1cc(Cl)c2ncc(C#N)c(Nc3ccc(F)c(Cl)c3)c2c1 [Example 441] | 1900
COC(=O)c1cnc(CNc2cc(Cl)c3ncc(C#N)c(Nc4ccc(F)c(Cl)c4)c3c2)n1C [Example 442] | 3400
Cc1[nH]c(-c2cccnc2)nc1CNc1cc(Cl)c2ncc(C#N)c(Nc3ccc(F)c(Cl)c3)c2c1 [Example 444] | 20600
N#Cc1cnc2c(Cl)cc(NCC(=O)c3ccccc3)cc2c1Nc1ccc(F)c(Cl)c1 [Example 447] | 870
CC(C)(CNc1cc(Cl)c2ncc(C#N)c(Nc3ccc(F)c(Cl)c3)c2c1)N1CCOCC1 [Example 450] | 2400
N#Cc1cnc2c(I)cc(NCc3cnc[nH]3)cc2c1Nc1ccc(F)c(Cl)c1 [Example 452] | 51
Cn1nc(CNc2cc(Br)c3ncc(C#N)c(Nc4ccc(F)c(Cl)c4)c3c2)cc1-c1ccccc1 [Example 453] | > 40000
C=Cc1cc(NCc2cnc[nH]2)cc2c(Nc3ccc(F)c(Cl)c3)c(C#N)cnc12 [Example 457] | 170
N#Cc1cnc2c(Cl)cc(NCc3cccc(O)c3O)cc2c1Nc1ccc(F)c(Cl)c1 [Example 458] | 1300
CC(=O)c1cc(NCc2cnc[nH]2)cc2c(Nc3ccc(F)c(Cl)c3)c(C#N)cnc12 [Example 459] | 23
CN(C)CC#Cc1ncn(COCc2ccccc2)c1CNc1cc(Cl)c2ncc(C#N)c(Nc3ccc(F)c(Cl)c3)c2c1 [Example 460] | 2000
CN(C)CCCc1nc[nH]c1CNc1cc(Cl)c2ncc(C#N)c(Nc3ccc(F)c(Cl)c3)c2c1 [Example 461] | 130
N#Cc1cnc2c(CCO)cc(NCc3cnc[nH]3)cc2c1Nc1ccc(F)c(Cl)c1 [Example 462] | 1200
CC(O)c1cc(NCc2cnc[nH]2)cc2c(Nc3ccc(F)c(Cl)c3)c(C#N)cnc12 (stereo not drawn) [Example 463] | 260
N#Cc1cnc2c(CO)cc(NCc3cnc[nH]3)cc2c1Nc1ccc(F)c(Cl)c1 [Example 464] | 570
N#Cc1cnc2c(Cl)cc(NCC(=O)O)cc2c1Nc1ccc(F)c(Cl)c1 [Example 465] | 51
CN1CCN(C(=O)CNc2cc(Cl)c3ncc(C#N)c(Nc4ccc(F)c(Cl)c4)c3c2)CC1 [Example 468] | 360
N#Cc1cnc2c(Cl)cc(NCC(=O)N3CCNCC3)cc2c1Nc1ccc(F)c(Cl)c1 [Example 470] | 420
CON(C)C(=O)CNc1cc(Cl)c2ncc(C#N)c(Nc3ccc(F)c(Cl)c3)c2c1 [Example 471] | > 40000
CONC(=O)CNc1cc(Cl)c2ncc(C#N)c(Nc3ccc(F)c(Cl)c3)c2c1 [Example 472] | 160
CNC(=O)CNc1cc(Cl)c2ncc(C#N)c(Nc3ccc(F)c(Cl)c3)c2c1 [Example 473] | 470
CN(C)C(=O)CNc1cc(Cl)c2ncc(C#N)c(Nc3ccc(F)c(Cl)c3)c2c1 [Example 474] | 1700
CCOC(=O)CNc1cc(Cl)c2ncc(C#N)c(Nc3ccc(F)c(Cl)c3)c2c1 [Example 475] | 1400
N#Cc1cnc2c(Br)cc(N(Cc3cn(CCN4CCOCC4)nn3)Cc3cn(CCN4CCOCC4)nn3)cc2c1Nc1ccc(F)c(Cl)c1 [Example 477] | > 40000
N#Cc1cnc2c(Br)cc(NCc3cn(C45CC6CC(CC(C6)C4)C5)nn3)cc2c1Nc1ccc(F)c(Cl)c1 [Example 479] | 1700

Second part, the compound after the results:

IC50 [nM] | Compound
3.2 | Cn1ccnc1CNc1cc(Cl)c2ncc(C#N)c(Nc3ccc(F)c(Cl)c3)c2c1 [Example 426]
47 | N#Cc1cnc2c(Cl)cc(NCc3cc[nH]n3)cc2c1Nc1ccc(F)c(Cl)c1 [Example 427]
100 | Cc1cc(CNc2cc(Cl)c3ncc(C#N)c(Nc4ccc(F)c(Cl)c4)c3c2)n[nH]1 [Example 429]
120 | Cc1cc(CNc2cc(Cl)c3ncc(C#N)c(Nc4ccc(F)c(Cl)c4)c3c2)n(C)n1 [Example 430]
220 | Cc1nc(CNc2cc(Cl)c3ncc(C#N)c(Nc4ccc(F)c(Cl)c4)c3c2)c(C)[nH]1 [Example 431]
260 | COCc1nc(CNc2cc(Cl)c3ncc(C#N)c(Nc4ccc(F)c(Cl)c4)c3c2)c[nH]1 [Example 432]
250 | N#Cc1cnc2c(Br)cc(NCc3ccnn3-c3ccccc3)cc2c1Nc1ccc(F)c(Cl)c1 [Example 433]
> 40000 | N#Cc1cnc2c(Br)cc(NCc3cnn(-c4ccccc4)n3)cc2c1Nc1ccc(F)c(Cl)c1 [Example 434]
21 | C[Si](C)(C)c1n[nH]nc1CNc1cc(Br)c2ncc(C#N)c(Nc3ccc(F)c(Cl)c3)c2c1 [Example 435]
150 | N#Cc1cnc2c(Br)cc(NCc3cncn3O)cc2c1Nc1ccc(F)c(Cl)c1 [Example 436]
220 | Cn1cncc1CNc1cc(Cl)c2ncc(C#N)c(Nc3ccc(F)c(Cl)c3)c2c1 [Example 439]
49 | N#Cc1cnc2c(Cl)cc(NCc3csnn3)cc2c1Nc1ccc(F)c(Cl)c1 [Example 440]
25 | CCCc1[nH]cnc1CNc1cc(Cl)c2ncc(C#N)c(Nc3ccc(F)c(Cl)c3)c2c1 [Example 443]
1100 | COc1ccsc1CNc1cc(Cl)c2ncc(C#N)c(Nc3ccc(F)c(Cl)c3)c2c1 [Example 445]
98 | Cn1nccc1CNc1cc(Br)c2ncc(C#N)c(Nc3ccc(F)c(Cl)c3)c2c1 [Example 446]
370 | N#Cc1cnc2c(Br)cc(NCc3n[nH]c4c3CCCC4)cc2c1Nc1ccc(F)c(Cl)c1 [Example 448]
5500 | Cc1cc(CNc2cc(Br)c3ncc(C#N)c(Nc4ccc(F)c(Cl)c4)c3c2)nn1C [Example 449]
330 | N#Cc1cnc2c(Br)cc(NCc3cc(-c4ccccc4)[nH]n3)cc2c1Nc1ccc(F)c(Cl)c1 [Example 454]
13500 | N#Cc1cnc2c(Br)cc(NCc3cc(-c4ccncc4)[nH]n3)cc2c1Nc1ccc(F)c(Cl)c1 [Example 455]
1000 | Cn1ncc(Br)c1CNc1cc(Br)c2ncc(C#N)c(Nc3ccc(F)c(Cl)c3)c2c1 [Example 456]
230 | Cn1nnc(CNc2cc(Cl)c3ncc(C#N)c(Nc4ccc(F)c(Cl)c4)c3c2)n1 [Example 466]
1200 | Cn1nnc(CCNc2cc(Cl)c3ncc(C#N)c(Nc4ccc(F)c(Cl)c4)c3c2)n1 [Example 467]
170 | Cn1nnnc1CCNc1cc(Cl)c2ncc(C#N)c(Nc3ccc(F)c(Cl)c3)c2c1 [Example 469]
16 | CCc1[nH]cnc1CNc1cc(Cl)c2ncc(C#N)c(Nc3ccc(F)c(Cl)c3)c2c1 [Example 476]
530 | Cn1cnc(CNc2cc(Cl)c3ncc(C#N)c(Nc4ccc(F)c(Cl)c4)c3c2)n1 [Example 478]
20 | CN(C)CCCn1cc(CNc2cc(Br)c3ncc(C#N)c(Nc4ccc(F)c(Cl)c4)c3c2)nn1 [Example 480]
24 | CN(C)CCn1cc(CNc2cc(Br)c3ncc(C#N)c(Nc4ccc(F)c(Cl)c4)c3c2)nn1 [Example 481]
